Test results: PubChem BioAssay AID2060895 (Molecular Pharmacology Branch, DTP, NCI, 2025)
“And” between values parts separate entries of the source, which are not always exact repeats. Equal entries are not always repeated.

System: PDC 899932-113-R3-J6 complex spheroid viability
Assay: Anticancer human tumor 899932-113-R3-J6-PDC patient-derived melanoma cell line growth inhibition [RAS]
Details: for viability, T/C: stronger effect = lower value
Excerpt: RAS pathway inhibitors in Combinations in Complex Spheroids
A high-throughput screen of multi-cell type tumor spheroids was designed to identify active combinations of RAS pathway inhibitors and targeted small molecules. Complex spheroids include a stromal component modeled by human endothelial cells (HUVEC) and fibroblasts modeled by human mesenchymal stem cells (MSCs). The concentration ranges selected for each drug and investigational agent were based upon clinically achievable concentrations if the clinical Cmax of the agent was known.
Compounds. The drugs and investigational agents: abemaciclib (NSC768073), cobimetinib (NSC768068), divarasib (GDC6063, NSC841802), docetaxel (NSC628503), GDC-1971 (RLY-1971, NSC841576), gemcitabine (NSC613327), inavolisib (NSC800729), ipatasertib (NSC767898), KB-0742 (NSC834161), MRTX-1133 (NSC836407), osimertinib (NSC779217), RMC-4630 (NSC839698), RMC-6236 (NSC851965), RMC-6291 (NSC852671), Ro-3306 (NSC812927), sapanisertib (NSC764658), SN-38 (NSC673596), staurosporine (NSC755774), SY5609 (NSC837396), and tovorafenib (DAY101, NSC766906), were obtained from the National Cancer Institute (NCI) Developmental Therapeutics Program Chemical Repository. The FDA-approved anticancer drug set is available from the NCI Developmental Therapeutics Program. […] The stock solutions were prepared in dimethyl sulfoxide (DMSO, Sigma-Aldrich, St. Louis, MO, cat. D2650) at 800-fold the tested concentration and stored at -70 degrees C prior to their use. All drugs and investigational agents were tested over a range starting from a high concentration at or near the clinical Cmax and decreasing in half-log increments. If the clinical Cmax for an agent had not been determined, the highest concentration tested was 10 microM.
Cell Culture. All cells were maintained in an incubator at 37 degrees C and 5% CO2 with 95% humidity. The PDC lines were cultured according to standard operating procedures established by the NCI PDMR. All PDCs were thawed and cultured in Matrigel-coated flasks prepared with a working solution of 1X Ham's F-12 nutrient mix, without supplementation (Invitrogen, Waltham, MA, cat. 11765054), 100 U/mL penicillin-streptomycin (Invitrogen, cat. 15140122), and 2.5% Matrigel (Corning Inc., Corning, NY, cat. 354248) for the first three passages. The 362531-283-R-J2-PDC and 782815-120-R-J1-PDC lines were cultured in 6C/Colon 1B media, which includes advanced DMEM/F-12 (Thermo Fisher Scientific, cat. 12634028), 10 mM HEPES (Thermo Fisher Scientific, cat. 15630080), 1X GlutaMAX supplement (Thermo Fisher Scientific, cat. 35050061), 0.1 mg/mL primocin (InvivoGen, San Diego, CA, cat. ant-pm-2), 10% defined fetal bovine serum, heat inactivated (HyClone Laboratories Inc., Logan, UT, cat. SH30070.03HI), 50% L-WRN conditioned media (ATCC, cat. CRL-3276), 1.25 mM N-Acetyl-L-cysteine (Sigma-Aldrich, cat. A9165), 10 mM nicotinamide (Sigma-Aldrich, cat. N0636), 1X B-27 supplement (Thermo Fisher Scientific, cat. 17504044), 1X N-2 supplement (Thermo Fisher Scientific, cat. 17502048), 50 ng/mL human EGF (Thermo Fisher Scientific, cat. PHG0311), and 10 microM Y-27632 dihydrochloride (Tocris Bioscience, cat. 1254). The K12877-001-R-J1-PDC line was cultured in 6I media, which includes all 6C/Colon 1B media plus 10 ng/mL human FGF-10 (PeproTech, cat. 100-26), 1 ng/mL human FGF-2 (PeproTech, cat. 100-18B), 1 µM prostaglandin E2 (Tocris Bioscience, cat. 2296), […] hydrocortisone (Sigma-Aldrich, cat. H4001), and […] bovine insulin (Sigma-Aldrich, cat. I6634). The K86415-001-R-J1-PDC line was cultured in 6D media, which includes all 6C/Colon 1B media components minus the L-WRN conditioned media. The 485176-168-R4-J1-PDC was cultured in PANC media, which includes all 6C/Colon 1B media plus 100 ng/mL human FGF-10 (PeproTech, cat. 100-26), 500 nM SB-431542 (Selleckchem, cat. S1067), and 10 nM gastrin (Tocris Bioscience, cat. 3006). […]
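Wherever viability, T/C is given: spheroids exposed to agents for seven days before readout; 100% = DMSO vehicle control wells.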

Row | Compound | IC50 (compound alone, run of 09/09/2024) [nM] | IC50 (curve of compound) | IC50 (compound alone, run of 08/26/2024) | IC50 (compound alone, run of 08/20/2024) [nM] | viability, T/C (compound 0.00316 µM) | viability, T/C (compound 0.01 µM) | viability, T/C (compound 0.0316 µM) | viability, T/C (compound 0.1 µM) | viability, T/C (compound 0.316 µM) | viability, T/C (compound 1 µM) | viability, T/C (compound 0.000316 µM) | viability, T/C (compound 0.001 µM) | viability, T/C (compound 0.000949 µM) | viability, T/C (compound 0.003 µM) | viability, T/C (compound 0.00949 µM) | viability, T/C (compound 0.03 µM) | viability, T/C (compound 0.0949 µM) | viability, T/C (compound 0.3 µM)
1 | C=CC(=O)Nc1cc(Nc2nccc(-c3cn(C)c4ccccc34)n2)c(OC)cc1N(C)CCN(C)C |  | > 1000 nM |  |  | 109% [middle of 4 runs] | 98.4% [middle of 4 runs] | 101% [middle of 4 runs] | 104% and 102% (2×) and 101% | 106% [middle of 4 runs] | 100% [middle of 4 runs] |  |  |  |  |  |  |  | 
2 | CC(C)n1nc(-c2ccc3oc(N)nc3c2)c2c(N)ncnc21 |  | > 100 nM and 76 nM and 69.3 nM |  |  | 116% [middle of 4 runs] |  | 71.8% [middle of 4 runs] |  |  |  | 107% [middle of 4 runs] | 102% [middle of 4 runs] |  |  |  |  |  | 
3 | CCc1c2c(nc3ccc(O)cc13)-c1cc3c(c(=O)n1C2)COC(=O)[C@]3(O)CC |  |  |  |  |  |  |  |  |  |  |  |  | 94.3% [middle of 4 runs] | 69.3% [middle of 4 runs] | 58.9% [middle of 4 runs] | 48.3% [middle of 4 runs] | 42.1% [middle of 4 runs] | 32.8% [middle of 4 runs]
4 | CCn1c(-c2cccnc2C(C)OC)c2c3cc(ccc31)N1CCOC(CC(NC(=O)C(C(C)C)N(C)C(=O)C3(F)CCN(C(=O)C#CC(C)(C)N(C)C)CC3)C(=O)N3CCCC(N3)C(=O)OCC(C)(C)C2)C1 (stereo not given) |  |  |  | > 300 |  |  |  |  |  |  |  |  | 110% [middle of 8 runs] | 108% [middle of 8 runs] | 105% [middle of 8 runs] | 106% [middle of 8 runs] | 98.7% [middle of 8 runs] | 92.5% [middle of 8 runs]

Further lines, with some results ahead:

Row | IC50 (compound alone, run of 09/09/2024) [nM] | IC50 (curve of compound) | IC50 (compound alone, run of 08/26/2024) | IC50 (compound alone, run of 08/20/2024) [nM] | Compound | viability, T/C (compound 0.00316 µM) | viability, T/C (compound 0.01 µM) | viability, T/C (compound 0.0316 µM) | viability, T/C (compound 0.1 µM) | viability, T/C (compound 0.316 µM) | viability, T/C (compound 1 µM) | viability, T/C (compound 0.000316 µM) | viability, T/C (compound 0.001 µM) | viability, T/C (compound 0.000949 µM) | viability, T/C (compound 0.003 µM) | viability, T/C (compound 0.00949 µM) | viability, T/C (compound 0.03 µM) | viability, T/C (compound 0.0949 µM) | viability, T/C (compound 0.3 µM)
5 | > 1000 | > 1000 nM |  |  | C=CC(=O)N1CCN(c2nc(OCC3CCCN3C)nc3c(F)c(-c4nc(N)cc(C)c4C(F)(F)F)c(Cl)cc23)C(C)C1 (stereo not given) | 109% [middle of 12 runs] | 108% [middle of 12 runs] | 108% [middle of 12 runs] | 107% [middle of 12 runs] | 105% [middle of 12 runs] | 103% [middle of 12 runs] |  |  |  |  |  |  |  | 
6 |  | 15 nM [middle of 4 runs] |  |  | CC1(C)CCC(Nc2ncc(C(F)(F)F)c(-c3c[nH]c4c(P(C)(C)=O)c(C#N)ccc34)n2)CN1 (stereo not given) |  |  |  |  |  |  |  |  | 98.3% [middle of 4 runs] | 75.5% [middle of 4 runs] | 53.9% [middle of 4 runs] | 44.4% [middle of 4 runs] | 18.4% [middle of 4 runs] | 12.9% [middle of 4 runs]
7 |  | 583 nM [middle of 4 runs] |  |  | CCN1CCN(Cc2ccc(Nc3ncc(F)c(-c4cc(F)c5nc(C)n(C(C)C)c5c4)n3)nc2)CC1 | 104% [middle of 4 runs] | 97.6% [middle of 4 runs] | 97% [middle of 4 runs] | 80.7% [middle of 4 runs] | 71% [middle of 4 runs] | 30.1% [middle of 4 runs] |  |  |  |  |  |  |  | 
8 |  |  | 2.05 nM [middle of 7 runs] |  | CCn1c(-c2cc(N3CCN(C)CC3)cnc2C(C)OC)c2c3cc(ccc31)-c1csc(n1)CC(NC(=O)C1CC1C)C(=O)N1CCCC(N1)C(=O)OCC(C)(C)C2 (stereo not given) |  |  |  |  |  |  |  |  | 76% [middle of 8 runs] | 38.2% [middle of 8 runs] | 3.79% [middle of 8 runs] | 3.16% [middle of 8 runs] | 2.66% [middle of 8 runs] | 2.33% [middle of 8 runs]
9 |  | 7.85 nM [middle of 4 runs] |  |  | O=C(c1ccc(F)c(F)c1Nc1ccc(I)cc1F)N1CC(O)([C@@H]2CCCCN2)C1 | 74% [middle of 4 runs] |  | 6.94% [middle of 4 runs] | 3.21% [middle of 4 runs] | 1.96% [middle of 4 runs] | 1.06% [middle of 4 runs] |  |  |  |  |  |  |  | 
